# ChEMBL document CHEMBL5725985, “Substituted pyridines as sodium channel blockers” (2017)
# pIC50: −log10 of the molar value.
# Biological target: Sodium channel protein type 9 subunit alpha (Homo sapiens, UniProt Q15858)
# Test: FLIPR Assay: In vitro assays were performed in a recombinant cell line expressing cDNA encoding the alpha subunit (Nav1.7, SCN9a, PN1, NE) of human Nav1.7 (Accession No. NM_002977). The cell line was provided by investigators at Yale University (Cummins et al, J. Neurosci. 18(23): 9607-9619 (1998)). For dominant selection of the Nav1.7-expressing clones, the expression plasmid co-expressed the neomycin resistance gene. The cell line was constructed in the human embryonic kidney cell line, HEK293, under the influence of the CMV […] promoter, and stable clones were selected using limiting dilution cloning and antibiotic selection using the neomycin analogue, G418. Recombinant beta and gamma subunits were not introduced into this cell line. Additional cell lines expressing recombinant Nav1.7 cloned from other species can also be used, alone or in combination with various beta subunits, gamma subunits or chaperones.
# Chain of Sodium channel protein type 9 subunit alpha (Q15858 whole entry): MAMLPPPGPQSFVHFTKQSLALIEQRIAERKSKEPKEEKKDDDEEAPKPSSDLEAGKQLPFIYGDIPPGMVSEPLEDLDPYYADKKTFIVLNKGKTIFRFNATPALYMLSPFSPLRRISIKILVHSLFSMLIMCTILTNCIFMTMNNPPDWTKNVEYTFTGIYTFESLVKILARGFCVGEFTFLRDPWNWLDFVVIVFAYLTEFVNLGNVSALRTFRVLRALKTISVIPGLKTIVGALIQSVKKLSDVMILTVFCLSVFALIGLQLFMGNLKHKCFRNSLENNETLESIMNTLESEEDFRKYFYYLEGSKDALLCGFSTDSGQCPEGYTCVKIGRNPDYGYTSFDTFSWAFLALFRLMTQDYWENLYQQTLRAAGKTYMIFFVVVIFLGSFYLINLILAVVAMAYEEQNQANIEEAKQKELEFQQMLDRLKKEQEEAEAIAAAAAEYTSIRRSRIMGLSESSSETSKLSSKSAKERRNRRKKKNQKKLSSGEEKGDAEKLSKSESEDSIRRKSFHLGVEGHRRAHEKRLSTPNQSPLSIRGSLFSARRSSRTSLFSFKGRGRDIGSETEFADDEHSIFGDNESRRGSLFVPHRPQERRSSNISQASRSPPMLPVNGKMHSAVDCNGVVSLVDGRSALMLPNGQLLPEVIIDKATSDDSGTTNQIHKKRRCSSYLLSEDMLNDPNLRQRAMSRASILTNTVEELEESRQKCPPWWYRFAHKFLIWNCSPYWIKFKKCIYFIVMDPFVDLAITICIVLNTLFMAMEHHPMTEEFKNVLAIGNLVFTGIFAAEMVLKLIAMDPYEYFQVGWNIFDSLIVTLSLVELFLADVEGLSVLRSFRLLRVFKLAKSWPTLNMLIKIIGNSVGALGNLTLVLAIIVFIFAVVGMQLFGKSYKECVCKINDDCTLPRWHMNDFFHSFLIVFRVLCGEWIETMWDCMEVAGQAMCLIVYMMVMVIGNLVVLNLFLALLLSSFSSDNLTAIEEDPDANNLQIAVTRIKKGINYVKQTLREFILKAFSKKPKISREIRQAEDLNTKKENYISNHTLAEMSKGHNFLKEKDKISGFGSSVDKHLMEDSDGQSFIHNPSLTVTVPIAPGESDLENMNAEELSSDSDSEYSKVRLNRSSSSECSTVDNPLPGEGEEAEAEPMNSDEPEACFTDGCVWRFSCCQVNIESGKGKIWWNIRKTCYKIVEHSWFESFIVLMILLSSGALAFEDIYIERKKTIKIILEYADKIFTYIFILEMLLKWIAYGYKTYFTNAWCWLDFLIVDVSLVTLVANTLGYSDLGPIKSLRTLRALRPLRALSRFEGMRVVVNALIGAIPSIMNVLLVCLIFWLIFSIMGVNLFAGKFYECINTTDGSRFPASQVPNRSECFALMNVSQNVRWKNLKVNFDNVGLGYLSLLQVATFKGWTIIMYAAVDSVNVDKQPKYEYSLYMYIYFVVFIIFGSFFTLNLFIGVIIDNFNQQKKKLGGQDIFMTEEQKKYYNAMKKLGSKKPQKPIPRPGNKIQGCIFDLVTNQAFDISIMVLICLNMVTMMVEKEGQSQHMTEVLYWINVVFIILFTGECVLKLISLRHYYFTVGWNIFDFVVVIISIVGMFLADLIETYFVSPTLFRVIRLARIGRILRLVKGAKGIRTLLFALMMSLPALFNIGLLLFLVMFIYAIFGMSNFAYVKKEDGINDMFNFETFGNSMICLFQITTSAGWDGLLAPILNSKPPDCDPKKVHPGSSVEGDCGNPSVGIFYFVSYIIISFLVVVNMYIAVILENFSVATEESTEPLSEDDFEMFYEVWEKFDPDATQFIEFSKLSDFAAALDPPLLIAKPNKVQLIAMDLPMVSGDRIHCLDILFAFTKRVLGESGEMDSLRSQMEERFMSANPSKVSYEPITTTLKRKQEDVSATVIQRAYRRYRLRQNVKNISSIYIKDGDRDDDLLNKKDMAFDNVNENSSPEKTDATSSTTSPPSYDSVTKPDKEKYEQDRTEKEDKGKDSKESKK
smiles,measurement,value
CC(C)C[C@H](NC(=O)C1CC1)C(=O)Nc1cccc(-c2ccc(Oc3ccc(F)cc3)cc2)n1,pIC50,7.44
